Test results published in ChEMBL document CHEMBL1201862, “PubChem BioAssay data set” (2004).
The source made the active and inactive calls.

Assays:
[1] = microbe, parasite or virus in culture; format: functional; conditions: Mycobacterium tuberculosis
[2] = biological target: T1, Heat shock factor protein 1 (Mus musculus, UniProt P38532); test: inhibition of MG132-induced HSE-luciferase signal, confirmation, cell-based, NIH3T3, luminescence, dose retest (AID 2382); format: functional;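 note: NIH3T3 fibroblasts with HSF1-driven luciferase reporter stressed by proteasome inhibitor MG132; luminescence from HSF1-driven luciferase expression after 8 hours of MG132 stress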
T1 sequence (P38532 whole entry): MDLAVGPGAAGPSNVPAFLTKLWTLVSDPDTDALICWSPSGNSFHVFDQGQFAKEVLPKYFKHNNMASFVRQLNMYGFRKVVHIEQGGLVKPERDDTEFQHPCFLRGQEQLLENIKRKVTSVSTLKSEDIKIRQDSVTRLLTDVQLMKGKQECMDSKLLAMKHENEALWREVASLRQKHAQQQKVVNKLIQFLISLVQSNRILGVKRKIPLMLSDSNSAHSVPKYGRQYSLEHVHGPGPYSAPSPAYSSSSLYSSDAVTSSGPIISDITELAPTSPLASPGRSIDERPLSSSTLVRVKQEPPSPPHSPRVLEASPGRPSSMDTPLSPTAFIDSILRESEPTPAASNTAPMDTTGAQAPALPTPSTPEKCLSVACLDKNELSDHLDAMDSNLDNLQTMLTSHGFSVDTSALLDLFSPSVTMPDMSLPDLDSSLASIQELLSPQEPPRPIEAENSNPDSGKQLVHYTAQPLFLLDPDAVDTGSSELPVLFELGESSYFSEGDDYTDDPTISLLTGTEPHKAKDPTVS

Cytochrome P450 1A2 = biological target: T2, Cytochrome P450 1A2 (Homo sapiens, UniProt P05177);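 note: PubChem cytochrome P450 panel assay, CYP1A2 panel member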
T2 sequence (P05177 whole entry): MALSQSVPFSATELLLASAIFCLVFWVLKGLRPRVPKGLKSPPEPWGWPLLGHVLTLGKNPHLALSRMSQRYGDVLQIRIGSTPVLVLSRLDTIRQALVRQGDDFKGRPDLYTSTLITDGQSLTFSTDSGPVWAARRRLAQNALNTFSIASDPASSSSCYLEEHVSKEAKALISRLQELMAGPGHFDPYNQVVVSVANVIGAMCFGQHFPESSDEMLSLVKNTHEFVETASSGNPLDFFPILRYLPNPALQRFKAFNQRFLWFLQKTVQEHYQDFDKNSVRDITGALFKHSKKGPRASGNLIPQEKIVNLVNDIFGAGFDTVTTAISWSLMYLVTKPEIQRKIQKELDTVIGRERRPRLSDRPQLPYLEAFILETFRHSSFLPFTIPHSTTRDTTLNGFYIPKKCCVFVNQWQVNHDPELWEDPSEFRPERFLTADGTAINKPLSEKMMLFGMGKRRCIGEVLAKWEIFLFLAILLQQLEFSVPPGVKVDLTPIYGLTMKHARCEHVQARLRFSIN

[3] = Luminescence Cell-Based Dose Retest to Confirm Inhibitors of Cancer Stem Cells. [Related pubchem assays (depositor defined):AID2717, AID2721]; format: functional; conditions: Homo sapiens
Streptokinase A = biological target: T3, Streptokinase A (Streptococcus pyogenes serotype M1, UniProt P10520); test: S. pyogenes streptokinase expression inhibitors, potency, dose response, plasminogen activation absorbance, OD405 (AID 1914); format: functional, Streptococcus pyogenes M1 GAS;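 note: secreted streptokinase activity via plasminogen activation per viability signal from cell pellet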
T3 sequence (P10520 whole entry): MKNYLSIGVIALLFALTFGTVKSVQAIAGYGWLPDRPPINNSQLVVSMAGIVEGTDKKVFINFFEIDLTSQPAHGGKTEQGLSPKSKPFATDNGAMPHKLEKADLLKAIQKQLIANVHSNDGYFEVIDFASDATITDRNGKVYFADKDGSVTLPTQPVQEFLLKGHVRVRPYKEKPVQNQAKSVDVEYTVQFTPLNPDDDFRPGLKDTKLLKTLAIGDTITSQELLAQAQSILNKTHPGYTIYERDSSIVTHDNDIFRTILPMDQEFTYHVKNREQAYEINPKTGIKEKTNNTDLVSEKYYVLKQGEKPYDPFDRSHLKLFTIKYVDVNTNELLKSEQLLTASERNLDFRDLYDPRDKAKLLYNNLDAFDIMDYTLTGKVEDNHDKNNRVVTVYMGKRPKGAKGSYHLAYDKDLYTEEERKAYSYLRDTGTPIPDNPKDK

[4] = growth suppression of PTEN-null colon cells, dose response, cell-based, HCT116 PTEN knockout (AID 1047); format: functional;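 note: HCT116 colon tumor cells with PTEN knocked out; cells exposed to compound for 60 hours before readout; potency for loss of cell viability measured by luminescence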
Streptococcus = test: Group A Streptococcus viability loss, dose response, counter-screen for streptokinase expression inhibitor project, luminescence, BacTiterGlo (AID 1915); format: functional, organism-based;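 note: potency for reduction of bacterial viability or growth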
[5] = growth suppression of beta-catenin-knockout colon cells, dose response, cell-based, HCT116, human colon tumor (AID 1045); format: functional;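 note: HCT116 colon tumor cells with beta catenin knocked out; cells exposed to compound for 60 hours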
[6] = test system: Streptococcus sp. 'group A'; test: growth inhibition of control SK(-) GAS strain, dose response, counter-screen for streptokinase expression inhibitor project, luminescence, kanamycin, BacTiterGlo, confirmation (AID 1900); format: functional, organism-based
cells [7] = format: functional, cell-based
cells [8] = format: functional, cell-based; remark: listed apart in the source
[9] = biological target: T1, Heat shock factor protein 1; test: HSF1 potentiators in luciferase reporter cells, confirmation, cell-based, NIH3T3, luminescence, dose retest (AID 435004); format: functional;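 note: stress induced by proteasome inhibitor MG132 added 30 min after compound; luciferase reporter driven by HSF1 response element in NIH3T3 cells; actives raise luminescence as potentiators of the MG132 stress response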
[10] = inhibitors of intracellular T. cruzi replication, confirmation, NIH3T3 host cells, beta-gal luminescence (AID 2044); format: functional, cell-based;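 note: intracellular parasites grown in NIH/3T3 mouse fibroblasts as host cells; luminescent beta-galactosidase reporter signal from transgenic T. cruzi replicating inside host cells; inhibitors lower the luminescence signal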
[11] = cytotoxicity toward NIH3T3 fibroblasts, dose response, counter-screen, cell-based, ATP luminescence, mouse fibroblasts (AID 2010); format: functional;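 note: cells exposed to compound for about 90 hours before reading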
Cytochrome P450 2C9 = Cytochrome P450 2C9 (Homo sapiens, UniProt P11712)
Sequence of Cytochrome P450 2C9 (P11712 whole entry): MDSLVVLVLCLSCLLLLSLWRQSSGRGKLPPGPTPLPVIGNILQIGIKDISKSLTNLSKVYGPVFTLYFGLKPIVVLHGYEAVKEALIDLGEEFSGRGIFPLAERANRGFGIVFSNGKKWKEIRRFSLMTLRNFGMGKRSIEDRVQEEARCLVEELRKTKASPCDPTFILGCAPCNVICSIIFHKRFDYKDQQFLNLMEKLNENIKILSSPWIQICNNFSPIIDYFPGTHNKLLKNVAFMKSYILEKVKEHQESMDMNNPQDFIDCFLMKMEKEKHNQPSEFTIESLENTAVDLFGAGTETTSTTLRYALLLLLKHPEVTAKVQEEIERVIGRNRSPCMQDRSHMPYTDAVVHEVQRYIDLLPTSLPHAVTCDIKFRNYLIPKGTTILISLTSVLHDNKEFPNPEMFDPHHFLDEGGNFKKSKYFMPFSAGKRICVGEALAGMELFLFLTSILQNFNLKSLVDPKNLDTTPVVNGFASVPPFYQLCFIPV

## Cc1sc2ncnc(Oc3ccc(-n4ccnc4)cc3)c2c1C
[1]
  CC50: > 40 µM (active)

## N#CCCn1cc(/C=C2\NC(=S)N(c3ccccc3)C2=O)c(-c2ccc(-c3ccccc3)cc2)n1
[1]
  CC50: 38.2 µM (active)

## CCOC(=O)C1(CCOc2ccccc2)CCN(Cc2cccc(-n3cccn3)c2)CC1
[2]
  EC50: > 195 µM (not active)
[1]
  CC50: > 40 µM (active)

## Cc1ccccc1-c1cncnc1NC1CCNCC1
Cytochrome P450 1A2
  AC50: 0.00794 µM (inconclusive)

## COc1cccc(C2C3=C(N=c4s/c(=C\c5cccc(O)c5)c(=O)n42)c2ccccc2CC3)c1OC (configuration not stated)
[3]
  AC50: 4.06 µM (active)
Streptokinase A
  EC50: 6.31 µM (active)
[4]
  EC50: 13.9 µM (active)
Streptococcus
  EC50: > 150 µM (not active)
[5]
  EC50: 15.3 µM (active)
[1]
  CC50: 32.5 µM (active)
[6]
  EC50: 20.8 µM (active)

## O=[N+]([O-])c1cccc(/C=C/c2ccc3cccc(O)c3n2)c1
Cells [7]
  EC50: 7.51 µM (active)
Cells [8]
  EC50: > 350 µM (not active)
Streptococcus
  EC50: 7.37 µM (active)
[6]
  EC50: 3.36 µM (active)

## CC(C)C(=O)C(C)(C)CCc1ccccn1
Cytochrome P450 1A2
  AC50: 2.51 µM (inconclusive)

## Cc1ccc(S(=O)(=O)c2cccc(S(=O)(=O)N3CCCC3)c2)cc1S(=O)(=O)N1CCCC1
[4]
  EC50: 35.7 µM (active)
[5]
  EC50: 28.3 µM (active)

## O=C1CC(=C(c2ccccc2)c2ccccc2)C(=O)N1CCCCN1CCN(c2ccccc2)CC1
[1]
  CC50: > 40 µM (active)

## COC(=O)N1CCC[C@@]2(CCN(C(=O)Nc3ccccc3)C2)C1
Cytochrome P450 1A2
  AC50: 12.6 µM (inconclusive)

## COc1ccc2c(c1)N(CC[C@H]1CCCCN1C)c1ccccc1S2
Cytochrome P450 1A2
  AC50: 1.26 µM (inconclusive)

## CC1CC(C)(C)N(C(=O)NC2CCCCC2)c2ccccc21 (configuration not stated)
[9]
  EC50: > 260 µM (inactive)

## COc1ccc(NS(=O)(=O)c2ccc3[nH]c(COc4cccc5ccccc45)nc3c2)cc1
[3]
  AC50: 3.87 µM (active)
Streptococcus
  EC50: 91 µM (active)
[1]
  CC50: 32.6 µM (active)
[6]
  EC50: 6.33 µM (active)

## COc1ccc(NC(=O)c2[nH]c(C)c(C(C)=O)c2C)cc1S(=O)(=O)Nc1ccc(Br)cc1
[10]
  EC50: 1.12 µM (active)
[11]
  EC50: > 60 µM (not active)
[9]
  EC50: > 260 µM (inactive)

## Cc1nn(C)c(Cl)c1S(=O)(=O)N[C@@H](c1ccccc1)[C@]1(C)C[C@H]1[C@@H](C)C(=O)Nc1ccc2ccccc2c1
Cytochrome P450 2C9
  AC50: 6.31 µM (inconclusive)
Cytochrome P450 1A2
  AC50: 5.01 µM (inconclusive)
